Measurements: PMC11234710, “Comparison of a novel potentiator of CFTR channel activity to ivacaftor in ameliorating mucostasis caused by cigarette smoke in primary human bronchial airway epithelial cells” (Respiratory Research, 2024)

Target: F508del-CFTR (Homo sapiens, UniProt P13569, DEL508-508)
Test: fluorescence membrane potential assay in HEK-293 cells expressing F508del-CFTR, […] °C, forskolin activated
Type: cell-based

F508del-CFTR, sequence (P13569 with tags, fused parts or gaps DEL508-508): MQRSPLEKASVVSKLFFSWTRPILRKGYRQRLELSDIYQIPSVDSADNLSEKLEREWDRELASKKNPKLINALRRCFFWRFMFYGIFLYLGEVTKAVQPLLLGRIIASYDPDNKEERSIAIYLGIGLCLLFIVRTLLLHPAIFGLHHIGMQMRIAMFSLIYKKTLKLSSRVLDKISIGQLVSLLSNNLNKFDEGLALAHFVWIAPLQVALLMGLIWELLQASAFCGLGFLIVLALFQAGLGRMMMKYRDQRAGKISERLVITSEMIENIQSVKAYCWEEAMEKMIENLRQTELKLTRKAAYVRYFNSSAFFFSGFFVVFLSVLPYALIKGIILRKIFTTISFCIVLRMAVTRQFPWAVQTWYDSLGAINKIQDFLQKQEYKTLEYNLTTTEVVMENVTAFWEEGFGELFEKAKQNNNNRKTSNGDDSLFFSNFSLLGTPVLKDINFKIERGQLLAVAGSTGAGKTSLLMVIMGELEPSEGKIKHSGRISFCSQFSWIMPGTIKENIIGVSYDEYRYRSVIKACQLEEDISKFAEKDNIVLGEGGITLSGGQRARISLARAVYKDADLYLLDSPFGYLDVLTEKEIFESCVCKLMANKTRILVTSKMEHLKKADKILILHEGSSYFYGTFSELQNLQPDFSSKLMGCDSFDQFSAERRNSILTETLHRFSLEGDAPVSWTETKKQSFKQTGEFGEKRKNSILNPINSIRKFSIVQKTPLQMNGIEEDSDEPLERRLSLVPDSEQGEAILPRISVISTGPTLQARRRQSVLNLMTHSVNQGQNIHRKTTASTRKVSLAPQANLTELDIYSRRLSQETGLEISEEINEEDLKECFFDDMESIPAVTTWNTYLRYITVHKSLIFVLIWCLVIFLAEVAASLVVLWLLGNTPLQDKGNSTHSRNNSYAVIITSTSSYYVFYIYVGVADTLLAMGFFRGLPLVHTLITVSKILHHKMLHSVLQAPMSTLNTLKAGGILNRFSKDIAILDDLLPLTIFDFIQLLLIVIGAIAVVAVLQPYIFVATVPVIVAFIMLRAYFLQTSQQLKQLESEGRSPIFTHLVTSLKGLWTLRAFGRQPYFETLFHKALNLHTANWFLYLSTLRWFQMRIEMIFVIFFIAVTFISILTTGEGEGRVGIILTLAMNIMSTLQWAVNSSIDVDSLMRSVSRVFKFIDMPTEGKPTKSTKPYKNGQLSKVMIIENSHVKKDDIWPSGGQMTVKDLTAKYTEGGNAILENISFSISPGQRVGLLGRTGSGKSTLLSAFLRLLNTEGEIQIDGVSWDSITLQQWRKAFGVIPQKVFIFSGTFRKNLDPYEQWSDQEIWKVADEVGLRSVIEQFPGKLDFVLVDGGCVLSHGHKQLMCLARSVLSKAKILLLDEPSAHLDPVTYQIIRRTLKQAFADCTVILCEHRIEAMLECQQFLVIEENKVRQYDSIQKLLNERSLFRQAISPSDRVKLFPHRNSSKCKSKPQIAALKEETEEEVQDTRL

## CC(C)(C)c1cc(C(C)(C)C)c(NC(=O)c2c[nH]c3ccccc3c2=O)cc1O [VX-770]
  EC50: 384 nM
